Reference: patent US20240262848A1, “HETEROCYCLIC COMPOUNDS, COMPOSITIONS THEREOF, AND METHODS OF TREATMENT THEREWITH” (BeiGene, Ltd., priority 2022, published 2024)

Legend:
[1] = target: GST-tagged GDP-loaded KRAS G12V (amino acids 1-169) (Homo sapiens, UniProt P01116, G12V); test: KRAS G12V probe displacement assay (TR-FRET); type: binding; details: Table 4; KRAS G12V 2 nM, biotinylated probe 2 2.5 nM
Protocol: Plates are incubated at 24 °C for 1 hr. […] After 1 hr incubation at 24° C.

[2] = tested on: pERK1/2(THR202/TYR204) level in SW620 cell line; test: KRAS G12V pERK assay in SW620 cells (HTRF); type: cell-based; details: Homo sapiens, SW-620, Table 4, 2 hrs compound treatment
Procedure, shortened: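 SW620 cells were treated for 2 h with a 10-point dilution series (final 0–10 μM) after overnight seeding. Lysates were then incubated overnight at room temperature with Eu3+-cryptate and acceptor anti-phospho-ERK1/2 antibodies, and HTRF was read at 655 nm. IC50 was fitted from percent inhibition versus log concentration.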

[3] = target: GST-tagged GDP-loaded KRAS G12D (amin acids 1-188) (Homo sapiens, UniProt P01116, G12D); test: KRAS G12D probe displacement assay (TR-FRET); type: binding; details: Table 5; KRAS G12D 0.5 nM, biotinylated probe 2 4 nM
Protocol: Plates are incubated at 24° C. for 1 hr.

[4] = tested on: pERK1/2(THR202/TYR204) level in AsPC-1 cell line; test: KRAS G12D pERK assay in AsPC-1 cells (HTRF); type: cell-based; details: Homo sapiens, ASPC1, Table 5, 2 h compound treatment
Protocol: AsPC-1 cell line was used in this study. Cells were maintained in RPMI-1640 supplemented with 10% fetal bovine serum (Thermo Fisher), 50 units/ml, penicillin and streptomycin (Thermo Fisher) and kept at 37° C. in a humidified atmosphere of 5% CO2 in air. Cells were reinstated from frozen stocks that were laid down within 30 passages from the original cells purchased. 30000 cells per well were seeded into a 96-well plate and incubated overnight. Cells were treated with a 10-point dilution series. The final compound concentration is from 0 to 10 μM. After 2 h compound treatment, cells were lysed, and the pERK1/2(THR202/TYR204) level in the cell lysates was detected by HTRF kit (Cisbio). In brief, a total of 16 μL of cell lysate from each well of a 96-well plate was transferred to a 384-well white assay plate. Lysate from each well was incubated with 2 μL of Eu3+-cryptate (donor) labeled anti-phospho-ERK1/2 and 2 μL of D2 (acceptor) labeled anti-phospho-ERK1/2 antibodies (Cisbio) overnight in dark at room temperature. When the donor and acceptor are in close proximity, excitation of the donor with laser triggers a Fluorescence Resonance Energy Transfer (FRET) towards the acceptor, which in turn fluoresces at 655 nm wavelength. FRET signals were measured using a PHERAstar FSX reader (BMG Labtech). IC50 determination was performed by fitting the curve of percent inhibition versus the log of the inhibitor concentration using Dotmatics.

Chain of GST-tagged GDP-loaded KRAS G12D (amin acids 1-188) (P01116 1-188 isoform P01116-2 G12D): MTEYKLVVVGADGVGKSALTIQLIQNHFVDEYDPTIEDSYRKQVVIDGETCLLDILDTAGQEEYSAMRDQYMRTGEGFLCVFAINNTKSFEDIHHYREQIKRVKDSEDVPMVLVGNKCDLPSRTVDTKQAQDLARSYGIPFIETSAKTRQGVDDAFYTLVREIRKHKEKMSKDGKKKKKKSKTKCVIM
Chain of GST-tagged GDP-loaded KRAS G12V (amino acids 1-169) (P01116 1-169 isoform P01116-2 G12V): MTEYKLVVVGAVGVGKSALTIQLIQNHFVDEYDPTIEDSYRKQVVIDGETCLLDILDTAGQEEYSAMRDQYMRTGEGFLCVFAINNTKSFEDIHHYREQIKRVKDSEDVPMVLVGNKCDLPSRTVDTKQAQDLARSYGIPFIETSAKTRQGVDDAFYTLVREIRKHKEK

| Structure (SMILES) | IC50 [1] | IC50 [2] | IC50 [3] | IC50 [4] |
| --- | --- | --- | --- | --- |
| CN1c2nc(OC[C@@]34CCCN3C[C@H](F)C4)nc3c(F)c(-c4cc(N)cc(Cl)c4C(F)(F)F)nc(c23)OCCC12CC2 [Example 31, 3-chloro-5-(4-fluoro-2-(((2R,7aS)-2-fluorotetrahydro-1H-pyrrolizin-7a(5H)-yl)methoxy)-11-methyl-8,9-dihydro-11H-7-oxa-1,3,6,11-tetraazaspiro[cycloocta[de]naphthalene-10,1′-cyclopropan]-1(11a), 2,3a, 4,6-pentaen-5-yl)-4 (trifluoromethyl)aniline] | 0.51 nM | 32 nM | 0.43 nM | 40 nM |
| C[C@@H]1C[C@H](C)Oc2nc(-c3cc(N)cc(Cl)c3C(F)(F)F)c(F)c3nc(OC[C@@]45CCCN4C[C@H](F)C5)nc(c23)N1C [Example 34, 3-chloro-5-((8S,10R)-4-fluoro-2-(((2R,7aS)-2-fluorotetrahydro-1H-pyrrolizin-7a(5H)-yl)methoxy)-8,10,11-trimethyl-8,9,10,11-tetrahydro-7-oxa-1,3,6,11-tetraazacycloocta[de]naphthalen-5-yl)-4-(trifluoromethyl)aniline] | 0.59 nM | 13 nM | 0.59 nM | 25 nM |
| C=C1CN2CCC[C@@]2(COc2nc3c4c(nc(-c5cc(N)cc(Cl)c5C(F)(F)F)c(F)c4n2)O[C@H]2COCC[C@@H]2N3C)C1 [Example 62, 3-chloro-5-((7aR,11aS)-4-fluoro-12-methyl-2-(((S)-2-methylenetetrahydro-1H-pyrrolizin-7a(5H)-yl)methoxy)-7a, 8,10,11,11a, 12-hexahydro-7,9-dioxa-1,3,6,12-tetraazapleiaden-5-yl)-4-(trifluoromethyl)aniline] | 0.25 nM | 5.5 nM | 0.23 nM | 12 nM |
| C#Cc1c(F)ccc2cc(O)cc(-c3nc4c5c(nc(OC[C@@]67CCCN6C[C@H](F)C7)nc5c3F)N(C)CCCO4)c12 [Example 10, 5-ethynyl-6-fluoro-4-(4-fluoro-2-(((2R,7aS)-2-fluorotetrahydro-1H-pyrrolizin-7a(5H)-yl)methoxy)-11-methyl-8,9,10,11-tetrahydro-7-oxa-1,3,6,11-tetraazacycloocta[de]naphthalen-5-yl)naphthalen-2-ol] | 1.4 nM | 103 nM | 1.1 nM | 123 nM |
| CCN1c2nc(OC[C@@]34CCCN3C[C@H](F)C4)nc3c(F)c(-c4cc(N)cc(Cl)c4C(F)(F)F)nc(c23)OCCC12COC2 [Example 35, 3-chloro-5-(11-ethyl-4-fluoro-2-(((2R,7aS)-2-fluorotetrahydro-1H-pyrrolizin-7a(5H)-yl)methoxy)-8,9-dihydro-11H-7-oxa-1,3,6,11-tetraazaspiro[cycloocta[de]naphthalene-10,3′-oxetan]-1(11a), 2,3a, 3a^1(6a), 5-pentaen-5-yl)-4-(trifluoromethyl)aniline] | 0.47 nM | 26 nM | 0.33 nM | 22 nM |
| Cc1cc(N)cc(-c2nc3c4c(nc(OC[C@]56CCC[C@H]5N(C)CCC6)nc4c2F)N(C)[C@H]2CCOC[C@@H]2O3)c1C(F)(F)F [Example 65, 3-((7aR,11aS)-4-fluoro-12-methyl-2-(((4aS,7aR)-1-methyloctahydro-4aH-cyclopenta[b]pyridin-4a-yl)methoxy)-7a, 8,10,11,11a, 12-hexahydro-7,9-dioxa-1,3,6,12-tetraazapleiaden-5-yl)-5-methyl-4-(trifluoromethyl)aniline] | 0.47 nM | 8.9 nM | 0.27 nM | 17 nM |
| CN1c2nc(OC[C@@]34CCCN3C[C@H](F)C4)nc3c(F)c(-c4cc(N)cc(Cl)c4C(F)(F)F)nc(c23)O[C@H]2COCC[C@@H]21 [Example 49, 3-chloro-5-((7aR,11aS)-4-fluoro-2-(((2R,7aS)-2-fluorotetrahydro-1H-pyrrolizin-7a(5H)-yl)methoxy)-12-methyl-7a, 8,10,11,11a, 12-hexahydro-7,9-dioxa-1,3,6,12-tetraazapleiaden-5-yl)-4-(trifluoromethyl)aniline] | 0.54 nM | 8.4 nM | 0.27 nM | 7.6 nM |
| CN1CCCOc2cc(-c3ccc(F)c4sc(N)c(C#N)c34)c(F)c3nc(OC[C@@]45CCCN4C[C@H](F)C5)nc1c23 [Example 2, 2-amino-7-fluoro-4-(11-fluoro-2-(((2R,7aS)-2-fluorotetrahydro-1H-pyrrolizin-7a(5H)-yl)methoxy)-4-methyl-4.5,6,7-tetrahydro-[1,5]oxazocino[4,3,2-de]quinazolin-10-yl)benzo[b]thiophene-3-carbonitrile] | 3.6 nM | 255 nM | 6.2 nM | 594 nM |
| CN1c2nc(OC[C@@]34CCCN3C[C@H](F)C4)nc3c(F)c(-c4cc(N)cc(Cl)c4C(F)(F)F)nc(c23)O[C@@H]2CCOC[C@H]21 [Example 51, 3-chloro-5-((7aR,11aR)-4-fluoro-2-(((2R,7aS)-2-fluorotetrahydro-1H-pyrrolizin-7a(5H)-yl)methoxy)-12-methyl-7a, 8,11a, 12-tetrahydro-9H, 11H-7,10-dioxa-1,3,6,12-tetraazapleiaden-5-yl)-4-(trifluoromethyl)aniline] | 0.5 nM | 9.3 nM | 0.28 nM | 30 nM |
